Patent US20100197749A1, “CHEMICAL COMPOUNDS” (ASTRAZENECA AB, priority 2006, published 2010)

Biological target: T1, EDG-1/S1P1 receptor (Homo sapiens, UniProt P21453)
T1 construct: expressed in transfected cells; host or cells: U2OS (human osteosarcoma), EDG-1 Transfluor U20S WT Clone #37
Test: In Vitro Cell Based Receptor Activation Assay-Transfluor Assay
Conditions: inhibition of S1P-stimulated (375 nM or 750 nM) beta-arrestin GFP relocalization; EDG-1 Transfluor U20S WT Clone #37 cells
From the text: The following assay can be used to measure the effects of the compounds of the present invention as S1P1/Edg1 inhibitors.
This cell-based assay was designed to assess the ability of small molecule antagonists to inhibit activation of the GPCR S1P1 in the presence of its cognate ligand S1P. The assay used technology initially developed by Norak Biosciences (Xsira Pharmaceutical) and presently owned by Molecular Devices. A human osteogenic sarcoma (U20S) cell line overexpressing the EDG-1/S1P1) receptor as well as a beta-arrestin/green fluorescent protein (GFP) construct hereafter termed EDG-1 Transfluor U20S WT Clone #37 was employed.
Using a high content screening approach (Cellomics Arrayscan), receptor activity was measured by assessment of the relocalization of beta-arrestin GFP in response to stimulation of EDG-1 by SIP. Specifically, EDG-1 Transfluor U20S WT Clone #37 cells were plated at a density of 6250 cells in 40 μL medium per well in 384 well plastic bottomed microtiter plates (BD Falcon) and incubated overnight at 37° C./5% CO2. Prior to screening, compounds were dissolved in 100% dimethyl sulfoxide (DMSO) to a final stock concentration of 10 mM. […] Plates were then sealed and analysed on the Cellomics Arrayscan using the GPCR signalling algorithm. EC50 values were then calculated using IDBS ActivityBase software.

SMILES	EC50 [nM]
CCn1c(C(C)NS(=O)(=O)c2ccc(Cl)cc2)nnc1C(F)(F)F (centres unmarked) [Example 11, 4-Chloro-N-[1-(4-ethyl-5-trifluoromethyl-4H-[1,2,4]triazol-3-yl)-ethyl]-benzenesulfonamide]	670
CCn1c(OC)nnc1[C@@H](Cc1cccnc1)NS(=O)(=O)c1ccc(Cl)cc1 [Example 16, 4-Chloro-N-[(R)-1-(4-ethyl-5-methoxy-4H-[1,2,4]triazol-3-yl)-2-pyridin-3-yl-ethyl]benzenesulfonamide]	133
